# Measured values from patent US11249071B2, “Reactivation of x chromosome genes” (CALIFORNIA INSTITUTE OF TECHNOLOGY, priority 2015, dated 2022).
# Entries after “also recorded” stand apart in the source; their conditions may differ.
# Test system: MLF cells having silenced X genes
# Experiment: X-chromosome reactivation assay (single molecule RNA FISH) in MLF cells treated with inhibitors
# Assay type: cell-based
# Details: mouse MLF cells, HDAC3 inhibitor alone (Scriptaid 100 nM), 48 hours, FIGS. 7A-7B
# Method: 5,000 Mouse MLF cells were plated on a poly-D-lysine (Sigma) and 0.2% gelatin (Sigma)-coated #1.5 coverslip placed into wells of a 24-well plate containing HEK media (DMEM, 10% Gemini Benchmark FBS, 1×L-glutamine, 1× sodium pyruvate, 1×NEAA, 1× Pen/Strep; Life Technologies unless otherwise indicated). After 16 hours, inhibitors were added into the media and incubated the cells for 48 hours. The inhibitors and the concentration used were: 5-Azacytidine (6 μM; Sigma, A2385), 5-Aza-2′-deoxycytidine ([…]; Sigma, A3656), RG 108 (200 μM; Abcam, ab141013), Trichostatin A (5 μM; Sigma, T8552), and Scriptaid (100 nM; Sigma, S7817).
# Coverslips from siRNA transfection or inhibitor treatment were fixed in Histochoice (Sigma) for 10 min, washed thoroughly in PBS, and dehydrated in ethanol for storage until FISH staining. Single molecule RNA Fluorescence in situ hybridization (FISH) experiments were done using QuantiGene ViewRNA ISH Cell Assay (Affymetrix) and QuantiGene ViewRNA ISH Cell 740 Module (Affymetrix) according to manufacturer's protocol. […]
# Cells were stained for target mRNAs and siRNA-targeted mRNA by FISH and imaged. Images were then analyzed using Matlab R2013b (described below). […] Within these cells, the copy number of target mRNAs were quantified using a peak finding method (described below) and compared across conditions. The mRNA levels were quantified for 50 individual cells. […]
smiles,measurement,value
O=C(CCCCCN1C(=O)c2cccc3cccc(c23)C1=O)NO [Scriptaid],"expression / reactivation of the Xist-dependent silenced Gpc4 gene, measured by levels of Gpc4 mRNA",resulting in expression of Gpc4; also recorded: resulting in the reactivation of the Xist-dependent silent Gpc4 gene
